From patent US20080064667A1, “OXAZOLE DERIVATIVES OF TETRACYCLINES” (Wyeth, priority 2003, published 2008)
≈ marks a conversion by molar mass, not a printed value.

Tests used:
Experiment in all cases: MIC, broth microdilution (NCCLS)
Type in all cases: cell-based
[1] = test system: H. influenzae<> GC6896 (ATCC Control); settings: Haemophilus influenzae, Mueller-Hinton II broth, 18-22 hours at 35° C.
Protocol: (§1) Methods for in Vitro Antibacterial Evaluation
(§2) The Minimum Inhibitory Concentration (MIC)
(§3) Antimicrobial susceptibility testing. The in vitro activities of the antibiotics are determined by the broth microdilution method as recommended by the National Committee for Clinical Laboratory Standards (NCCLS) (1). Mueller-Hinton II broth (MHBII)(BBL Cockeysville, Md.) is the medium employed in the testing procedures. Microtiter plates containing serial dilutions of each antimicrobial agent are inoculated with each organism to yield the appropriate density (10^5 CFU/ml) in a 100 μl final volume. The plates are incubated for 18-22 hours at 35° C. in ambient air.
(§4) 1. NCCLS. 2000. Methods for Dilution Antimicrobial Susceptibility Tests for Bacteria That Grow Aerobically; Approved Standards: M7-A5, vol. 20. National Committe for Clinical Laboratory Standards, Wayne, Pa.

[2] = test system: E. coli GC4559 (parent GC4560); settings: Escherichia coli, Mueller-Hinton II broth, 18-22 hours at 35° C.
Protocol: as §1, §2, §3, §4

[3] = test system: S. aureus GC6466 (tet(M)); settings: Staphylococcus aureus, Mueller-Hinton II broth, 18-22 hours at 35° C.
Protocol: as §1, §2, §3, §4

[4] = test system: E. coli GC4560 (IMP mutant); settings: Escherichia coli
Protocol: as §1, §2, §3, §4

[5] = test system: E. faecalis GC4555 (ATCC Control); settings: Enterococcus faecalis, Mueller-Hinton II broth, 18-22 hours at 35° C.
Protocol: as §1, §2, §3, §4

[6] = test system: M. catarrhalis* GC6907 (Clinical); settings: Moraxella catarrhalis, Mueller-Hinton II broth, 18-22 hours at 35° C.
Protocol: as §1, §2, §3, §4

[7] = test system: S. aureus GC2216 (ATCC Control); settings: Staphylococcus aureus, Mueller-Hinton II broth, 18-22 hours at 35° C.
Protocol: as §1, §2, §3, §4

[8] = test system: S. aureus GC1079 (tet(K)); settings: Staphylococcus aureus, Mueller-Hinton II broth, 18-22 hours at 35° C.
Protocol: as §1, §2, §3, §4

[9] = test system: S. pneumoniae* GC1894 (Clinical); settings: Streptococcus pneumoniae, Mueller-Hinton II broth, 18-22 hours at 35° C.
Protocol: as §1, §2, §3, §4

[10] = test system: S. pyogenes* GC4563 (Clinical); settings: Streptococcus pyogenes, Mueller-Hinton II broth, 18-22 hours at 35° C.
Protocol: as §1, §2, §3, §4

E. coli GC2270 (tet(M)) = settings: Escherichia coli
Protocol: as §1, §2, §3, §4

[11] = test system: S. aureus GC4536 (Smith MP -In Vivo); settings: Staphylococcus aureus, Mueller-Hinton II broth, 18-22 hours at 35° C.
Protocol: as §1, §2, §3, §4

[12] = test system: S. aureus GC1131 (Clinical); settings: Staphylococcus aureus, Mueller-Hinton II broth, 18-22 hours at 35° C.
Protocol: as §1, §2, §3, §4

[13] = test system: C. albicans GC3066 ATCC (Control); settings: Candida albicans, Mueller-Hinton II broth, 18-22 hours at 35° C.
Protocol: as §1, §2, §3, §4

[14] = test system: S. pneumoniae* GC4465 (Clinical); settings: Streptococcus pneumoniae, Mueller-Hinton II broth, 18-22 hours at 35° C.
Protocol: as §1, §2, §3, §4

[15] = test system: E. faecalis GC2242 (Van-resistant); settings: Enterococcus faecalis, Mueller-Hinton II broth, 18-22 hours at 35° C.
Protocol: as §1, §2, §3, §4

[16] = test system: E. coli GC2203 (ATCC Control); settings: Escherichia coli, Mueller-Hinton II broth, 18-22 hours at 35° C.
Protocol: as §1, §2, §3, §4

E. coli GC1073 (tet(B)) = settings: Escherichia coli
Protocol: as §1, §2, §3, §4

SMILES	MIC [1] [µg/mL]	MIC [2] [µg/mL]	MIC [3] [µg/mL]	MIC [4] [µg/mL]	MIC [5] [µg/mL]	MIC [6] [µg/mL]	MIC [7] [µg/mL]	MIC [8] [µg/mL]	MIC [9] [µg/mL]	MIC [10] [µg/mL]	MIC (E. coli GC2270 (tet(M))) [µg/mL]	MIC [11] [µg/mL]	MIC [12] [µg/mL]	MIC [13] [µg/mL]	MIC [14] [µg/mL]	MIC [15] [µg/mL]	MIC [16] [µg/mL]	MIC (E. coli GC1073 (tet(B))) [µg/mL]
CN(C)c1cc2nc(/C=C/c3ccccc3)oc2c2c1C[C@H]1C[C@H]3[C@H](N(C)C)C(O)=C(C(N)=O)C(=O)[C@@]3(O)C(O)=C1C2=O [Example 25, (6aR,7aS,8S,11aS)-5,8-bis(dimethylamino)-9,1a,12-trihydroxy-11,13-dioxo-2-[(E)-2-phenylethenyl]-6,6a,7,7a,8,11,11a,13-octahydrotetraceno[2,1-d][1,3]oxazole-10-carboxamide]	> 64	> 64	4 (≈ 6.84 µM)	8 (≈ 13.7 µM)	8 (≈ 13.7 µM)	16 (≈ 27.4 µM)	4 (≈ 6.84 µM)	4 (≈ 6.84 µM)	32 (≈ 54.7 µM)	16 (≈ 27.4 µM)	> 64	8 (≈ 13.7 µM)	8 (≈ 13.7 µM)	> 64	32 (≈ 54.7 µM)	4 (≈ 6.84 µM)	> 64	> 64
CN(C)c1cc2nc(-c3ccco3)oc2c2c1C[C@H]1C[C@H]3[C@H](N(C)C)C(O)=C(C(N)=O)C(=O)[C@@]3(O)C(O)=C1C2=O [Example 20, (6aR,7aS,8S,1aS)-5,8-bis(dimethylamino)-2-(2-furyl)-9,11a,1 2-trihydroxy-11,13-dioxo-6,6a,7,7a,8,11,11a,13-octahydrotetraceno[2,1-d][1,3]oxazole-10-carboxamide]	> 64	> 64	32 (≈ 58.3 µM)	32 (≈ 58.3 µM)	64 (≈ 117 µM)	32 (≈ 58.3 µM)	32 (≈ 58.3 µM)	32 (≈ 58.3 µM)	64 (≈ 117 µM)	32 (≈ 58.3 µM)	> 64	64 (≈ 117 µM)	32 (≈ 58.3 µM)	> 64	> 64	32 (≈ 58.3 µM)	> 64	> 64
CN(C)c1cc2nc(-c3cc4ccccc4o3)oc2c2c1C[C@H]1C[C@H]3[C@H](N(C)C)C(O)=C(C(N)=O)C(=O)[C@@]3(O)C(O)=C1C2=O [Example 18, (6aR,7aS,8S,11aS)-2-(1-benzofuran-2-yl)-5,8-bis(dimethylamino)-9,11a,12-trihydroxy-11,13-dioxo-6,6a,7,7a,8,11,11a,13-octahydrotetraceno[2,1-d][1,3]oxazole-10-carboxamide]	> 64	> 64	4 (≈ 6.68 µM)	4 (≈ 6.68 µM)	4 (≈ 6.68 µM)	8 (≈ 13.4 µM)	4 (≈ 6.68 µM)	4 (≈ 6.68 µM)	16 (≈ 26.7 µM)	16 (≈ 26.7 µM)	> 64	4 (≈ 6.68 µM)	4 (≈ 6.68 µM)	> 64	16 (≈ 26.7 µM)	4 (≈ 6.68 µM)	> 64	> 64
Cc1ccc(-c2nc3cc(N(C)C)c4c(c3o2)C(=O)C2=C(O)[C@]3(O)C(=O)C(C(N)=O)=C(O)[C@@H](N(C)C)[C@@H]3C[C@@H]2C4)cc1 [Example 5, (6aR,7aS,8S,11aS)-5,8-bis(dimethylamino)-9,11a,12-trihydroxy-2-(4-methylphenyl)-11,13-dioxo-6,6a,7,7a,8,11,11a,13-octahydrotetraceno[2,1-d][1,3]oxazole-10-carboxamide]	> 64	> 64	4 (≈ 6.99 µM)	4 (≈ 6.99 µM)	4 (≈ 6.99 µM)	16 (≈ 27.9 µM)	4 (≈ 6.99 µM)	4 (≈ 6.99 µM)	8 (≈ 14 µM)	16 (≈ 27.9 µM)	> 64	4 (≈ 6.99 µM)	4 (≈ 6.99 µM)	> 64	16 (≈ 27.9 µM)	4 (≈ 6.99 µM)	> 64	> 64
CN(C)c1cc2nc(-c3ccc(O)cc3O)oc2c2c1C[C@H]1C[C@H]3[C@H](N(C)C)C(O)=C(C(N)=O)C(=O)[C@@]3(O)C(O)=C1C2=O [Example 12, (6aR,7aS,8S,11aS)-2-(2,4-dihydroxyphenyl)-5,8-bis(dimethylamino)-9,11a,12-trihydroxy-11,13-dioxo-6,6a,7,7a,8,11,11a,13-octahydrotetraceno[2,1-d][1,3]oxazole-10-carboxamide]	16 (≈ 27.1 µM)	> 64	8 (≈ 13.5 µM)	4 (≈ 6.77 µM)	8 (≈ 13.5 µM)	4 (≈ 6.77 µM)	4 (≈ 6.77 µM)	8 (≈ 13.5 µM)	8 (≈ 13.5 µM)	4 (≈ 6.77 µM)	> 64	8 (≈ 13.5 µM)	4 (≈ 6.77 µM)	> 64	8 (≈ 13.5 µM)	8 (≈ 13.5 µM)	32 (≈ 54.2 µM)	> 64
COc1ccccc1/C=C/c1nc2cc(N(C)C)c3c(c2o1)C(=O)C1=C(O)[C@]2(O)C(=O)C(C(N)=O)=C(O)[C@@H](N(C)C)[C@@H]2C[C@@H]1C3 [Example 28, (6aR,7aS,8S,11aS)-5,8-bis(dimethylamino)-9,11a,12-trihydroxy-2-[(E)-2-(2-methoxyphenyl)ethenyl]-11,13-dioxo-6,6a,7,7a,8,11,11a,13-octahydrotetraceno[2,1-d][1,3]oxazole-10-carboxamide]	> 64	> 64	8 (≈ 13 µM)	16 (≈ 26 µM)	16 (≈ 26 µM)	64 (≈ 104 µM)	8 (≈ 13 µM)	16 (≈ 26 µM)	64 (≈ 104 µM)	16 (≈ 26 µM)	> 64	16 (≈ 26 µM)	8 (≈ 13 µM)	> 64	32 (≈ 52.1 µM)	8 (≈ 13 µM)	> 64	> 64
CCOc1cc(OCC)c(-c2nc3cc(N(C)C)c4c(c3o2)C(=O)C2=C(O)[C@]3(O)C(=O)C(C(N)=O)=C(O)[C@@H](N(C)C)[C@@H]3C[C@@H]2C4)cc1OCC [Example 16, (6aR,7aS,8S,11aS)-5,8-bis(dimethylamino)-9,11a,12-trihydroxy-11,13-dioxo-2-(2,4,5-triethoxyphenyl)-6,6a,7,7a,8,11,11a,13-octahydrotetraceno[2,1-d][1,3]oxazole-10-carboxamide]	> 64	> 64	16 (≈ 23.2 µM)	16 (≈ 23.2 µM)	16 (≈ 23.2 µM)	> 64	16 (≈ 23.2 µM)	16 (≈ 23.2 µM)	> 64	64 (≈ 92.7 µM)	> 64	16 (≈ 23.2 µM)	16 (≈ 23.2 µM)	> 64	> 64	16 (≈ 23.2 µM)	> 64	> 64
CN(C)c1cc2nc(-c3ccc(C(C)(C)C)cc3)oc2c2c1C[C@H]1C[C@H]3[C@H](N(C)C)C(O)=C(C(N)=O)C(=O)[C@@]3(O)C(O)=C1C2=O [Example 31, (6aR,7aS,8S,11aS)-2-(4-tert-butylphenyl)-5,8-bis(dimethylamino)-9,11a,12-trihydroxy-11,13-dioxo-6,6a,7,7a,8,11,11a,13-octahydrotetraceno[2,1-d][1,3]oxazole-10-carboxamide]	> 64	> 64	4 (≈ 6.51 µM)	4 (≈ 6.51 µM)	8 (≈ 13 µM)	16 (≈ 26 µM)	8 (≈ 13 µM)	8 (≈ 13 µM)	8 (≈ 13 µM)	8 (≈ 13 µM)	> 64	8 (≈ 13 µM)	8 (≈ 13 µM)	> 64	8 (≈ 13 µM)	8 (≈ 13 µM)	> 64	> 64
